Results: patent US20250009819A1, “NOVEL PROBIOTICS AND USE THEREOF” (PBLBIOLAB CO., LTD., priority 2021, published 2025)

Columns and labels:
healthy animal = assay: Healthy animal: colon parameters; assay type: in vivo, C57BL/6 male mice; settings: healthy mice, 1×10^9 CFU/mouse orally once a day for 5 days
Procedure: (§1) To 100 mg of colon tissue, 200 μl of 10 mM potassium phosphate buffer (pH 7.0) containing 0.5% hexadecyl trimethyl ammonium bromide was added and homogenized. Then, the supernatant was obtained by centrifugation for 10 minutes at 4° C. and 10,000 g. A volume of 50 μl of the supernatant was added to 0.95 mk of reaction solution (containing 1.6 mM tetramethyl benzidine and 0.1 mM H2O2), reacted at 37° C., and absorbance was monitored over time at 650 nm.
(§2) Hippocampus, colon, and spleen tissues were homogenized by adding 1 ml of RIPA buffer (Gibco) containing protease inhibitor cocktail and centrifuged at 4° C., 13000 rpm for 15 min to obtain supernatant. Indicators of this supernatant were measured using an ELISA kit (Ebioscience).
C57BL/6 male mice (5 weeks old, 19-21 g) were divided (6 mice in each group) and acclimatized to the laboratory for 1 week. The mice were orally administered once a day for 5 days with lactic acid bacteria as a test sample suspended in physiological saline solution at a concentration of 1×10^9 CFU per mouse (NK210 alone (LR): 1×10^9 CFU/mouse, NK219 alone (BL): 1×10^9 CFU/mouse, combined (210+219): 210, 8×10^8 CFU/mouse and 219, 2×10^8 CFU/mouse). […] The day following the conclusion of sample administration, the experimental animals were sacrificed, and samples from the brain hippocampus, colon, and spleen were collected. In the Hippocampus, inflammatory indicators, such as IFN-γ, TNF-α, and IL-10, were measured using ELISA. In the colon, intestinal length and inflammatory indicators, such as IFN-γ, TNF-α, and IL-10, were measured. In the spleen, Th1 cells and Treg cells were measured by FACS (Fluorescence-Activated Cell Sorting).

BDNF = BDNF expression in SH-SY5Y cells; assay type: cell-based; settings: LPS 200 ng/ml; lactic acid bacteria 1×10^4 CFU/ml; 24 h
Procedure: SH-SY5Y cells obtained from the Korean Cell Line Bank were cultured in DMEM medium supplemented with 10% FBS and 1% antibiotics, and dispensed at 2×10^6 cells per well in a 12-well plate. Then, LPS (200 ng/ml) was added to each well along with lactic acid bacteria (1×10^4 CFU/ml) and incubated for 24 h. The cells and supernatants were collected, sonicated and centrifuged, and the amount of BDNF in the supernatant was measured by ELISA kit.

[1] = tested on: animals with intestinal and brain diseases induced by TNBS; assay: Animals with intestinal and brain diseases induced by TNBS: improvement effect in colon; assay type: in vivo, C57BL/6 male mice; settings: TNBS-treated mice, 1×10^9 CFU/mouse or sulfasalazine 50 mg/kg orally once a day for 5 days
Procedure: Then, the supernatant was obtained by centrifugation for 10 minutes at 4° C. and 10,000 g. A volume of 50 μl of the supernatant was added to 0.95 mk of reaction solution (containing 1.6 mM tetramethyl benzidine and 0.1 mM H2O2), reacted at 37° C., and absorbance was monitored over time at 650 nm. […] Indicators of this supernatant were measured using an ELISA kit (Ebioscience). C57BL/6 male mice (5 weeks old, 19-21 g) were divided (6 mice in each group) and acclimatized to the laboratory for 1 week. […] Meanwhile, the normal group was orally administered with 0.1 ml of physiological saline. From the next day, the mice were orally administered once a day for 5 days with lactic acid bacteria as a test sample suspended in physiological saline solution at a concentration of 1×10^9 CFU per mouse (NK210 alone (LR): 1×10^9 CFU/mouse, NK219 alone (BL): 1×10^9 CFU/mouse, NK209 alone (LL): 1×10^9 CFU/mouse, combined (MX, 210+219): NK210, 8×10^8 CFU/mouse and NK219, 2×10^8 CFU/mouse, combined (MX, 209+219) NK209, 8×10^8 CFU/mouse and NK219, 2×10^8 CFU/mouse, LR+BL+LL: NK210, 4×10^8 CFU/mouse, NK219, 2×10^8 CFU/mouse, and NK209, 4×10^8 CFU/mouse, heat treated (H—), respectively: 1×10^9 CFU/mouse). […] The day following the conclusion of sample administration, the experimental animals were sacrificed, and samples from the brain hippocampus, colon, and spleen were collected. In the Hippocampus, inflammatory indicators, such as TNF-α and IL-10, were measured using ELISA. In the colon, intestinal length and inflammatory indicators, such as TNF-α and IL-10, were measured. In the spleen, Th1 cells and Treg cells were measured by FACS (Fluorescence-Activated Cell Sorting).

[2] = tested on: immunosuppressed animals induced by anticancer drug (cyclophosphamide); assay: Immunosuppressed animals induced by cyclophosphamide: colitis improvement (colon); assay type: in vivo, C57BL/6 male mice; settings: cyclophosphamide (CP)-treated mice, 1×10^9 CFU/mouse orally once a day for 5 days
Procedure: as §1, §2
C57BL/6 male mice (5 weeks old, 19-21 g) were divided (6 mice in each group) and acclimatized to the laboratory for 1 week. To induce intestinal and brain diseases, the mice were administered with cyclophosphamide (CP, 150 mg/kg, dissolved in physiological saline) for 1 day, rested for 1 day, and then administered intraperitoneally the next day. Meanwhile, the normal group was administered intraperitoneally with 0.1 ml of physiological saline. […] The day following the conclusion of sample administration, the experimental animals were sacrificed, and samples from the brain hippocampus, colon, and spleen were collected. In the Hippocampus, inflammatory indicators, such as IFN-γ, TNF-α, and IL-10, were measured using ELISA. In the colon, intestinal length and inflammatory indicators, such as IFN-γ, TNF-α, and IL-10, were measured. In the spleen, Th1 cells and Treg cells were measured by FACS (Fluorescence-Activated Cell Sorting).

Substance	Colon (cm) (healthy animal)	IFN-γ/IL-10 (healthy animal)	IL-10 (healthy animal) [pg/mg]	Interferon (IFN)-γ (healthy animal) [pg/mg]	MPO activity (healthy animal) [μUnit/mg]	TNF-a/IL-10 (healthy animal)	TNF-α (healthy animal) [pg/mg]	SHSY5Y cell Induction of BDNF expression (BDNF)	Colon IFN-γ [1] [pg/mg]	Colon IL-10 [1] [pg/mg]	Colon MPO [1] [μUnit/mg]	Colon TNF-α [1] [pg/mg]	Colon length (cm) [1] [cm]	Colon (cm) [2] [cm]	IFN-γ/IL-10 [2]	IL-10 [2] [pg/mg]	Interferon (IFN)-γ [2] [pg/mg]	MPO activity [2] [μUnit/mg]	TNF-a/IL-10 [2]	TNF-α [2] [pg/mg]
Lactobacillus rhamnosus NK210	5.12	1.40	39.95	55.75	4.18	0.34	13.40	++ (strongly (++; >60-90%))	8.42	15.31	18.43	23.84	4.63	4.98	3.05	9.65	28.79	4.79	2.19	20.60
Lactococcus lactis NK209	–	–	–	–	–	–	–	+ (weakly (+; >20-60%))	7.89	17.10	15.65	20.12	4.89	–	–	–	–	–	–	–
Bifidobacterium longum NK219	5.03	1.52	42.89	64.83	3.53	0.37	15.73	+++ (very strongly (+++; >90%))	7.79	17.20	16.24	20.57	4.82	4.95	3.32	13.00	38.64	4.62	2.12	26.73
